Assay results reported in ChEMBL document CHEMBL1201862, “PubChem BioAssay data set” (2004).
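A five-concentration, 48-hour dose response in 96-well plates underlies each endpoint, interpolated linearly between surrounding concentrations. Here, GI50 denotes the concentration required for 50% inhibition of growth.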 Active and inactive are the calls of the source. No stated cut-off is given here; in the data, active = GI50 up to about 1.1 µM and inactive = higher.

What was measured:
Test in all cases: NCI anticancer screen, dose series, 48 h
[1] = test system: IGROV-1
[2] = test system: UACC-257
[3] = test system: UACC-62
[4] = test system: SK-MEL-28
[5] = test system: UO-31
[6] = test system: HCC 2998
[7] = test system: NCI-H460
[8] = test system: NCI-H23
[9] = test system: TK-10
[10] = test system: HCT-116
[11] = test system: OVCAR-3
[12] = test system: OVCAR-8
[13] = test system: SW-620
[14] = test system: A549
[15] = test system: SF-268
[16] = test system: OVCAR-4
[17] = test system: ACHN
[18] = test system: SF-539
[19] = test system: NCI-H226

Row | SMILES | GI50 [1] | GI50 [2] | GI50 [3] | GI50 [4] | GI50 [5] | GI50 [6] | GI50 [7] | GI50 [8] | GI50 [9] | GI50 [10] | GI50 [11] | GI50 [12] | GI50 [13] | GI50 [14] | GI50 [15] | GI50 [16] | GI50 [17] | GI50 [18] | GI50 [19]
1 | O=C1Sc2ccccc2C(=O)N2CCSC12 (stereo not drawn) | > 10 µM (inactive) | > 100 µM (inactive) | > 100 µM (inactive) | > 100 µM (inactive) | > 100 µM (inactive) | > 100 µM (inactive) | > 100 µM (inactive) | > 100 µM (inactive) | > 100 µM (inactive) | > 100 µM (inactive) | > 100 µM (inactive) | > 100 µM (inactive) | > 100 µM (inactive) |  |  |  |  |  | 
2 | CCn1nc(C)c2c1C(=O)NCC(=O)N2 | > 100 µM (inactive) | > 100 µM (inactive) | > 100 µM (inactive) | > 100 µM (inactive) | > 100 µM (inactive) |  | > 100 µM (inactive) | > 100 µM (inactive) | > 100 µM (inactive) | > 100 µM (inactive) | > 100 µM (inactive) | > 100 µM (inactive) | > 100 µM (inactive) | > 100 µM (inactive) | > 100 µM (inactive) | > 100 µM (inactive) | > 100 µM (inactive) | > 100 µM (inactive) | 
3 | Clc1ccc(CCn2cncn2)cc1 | > 100 µM (inactive) | > 100 µM (inactive) | > 100 µM (inactive) | > 100 µM (inactive) | > 100 µM (inactive) |  | > 100 µM (inactive) | > 100 µM (inactive) | > 100 µM (inactive) | > 100 µM (inactive) | > 100 µM (inactive) | > 100 µM (inactive) | > 100 µM (inactive) | > 100 µM (inactive) | > 100 µM (inactive) | > 100 µM (inactive) | > 100 µM (inactive) | > 100 µM (inactive) | > 100 µM (inactive)
4 | CCOC(=O)c1sc2nc(SC)nc3c2c1NCN3C | 13 µM (inactive) | > 100 µM (inactive) | 42.7 µM (inactive) | > 100 µM (inactive) | 11.9 µM (inactive) | 62.1 µM (inactive) | 32.1 µM (inactive) | 22 µM (inactive) | 25 µM (inactive) | 22 µM (inactive) | > 100 µM (inactive) | 10.7 µM (inactive) |  | 16.9 µM (inactive) | 16.7 µM (inactive) | 20.4 µM (inactive) | 18.7 µM (inactive) |  | 31.7 µM (inactive)
5 | COC(=O)C(CC(=O)c1cc2c(cc1I)OCO2)Cc1cc(OC)c(OC)c(OC)c1I (stereo not drawn) | > 100 µM (inactive) | 16.4 µM (inactive) | 37.2 µM (inactive) | > 100 µM (inactive) |  | > 100 µM (inactive) | > 100 µM (inactive) | 45.6 µM (inactive) | > 100 µM (inactive) | 19.2 µM (inactive) | 7.21 µM (inactive) | > 100 µM (inactive) | > 100 µM (inactive) | > 100 µM (inactive) | > 100 µM (inactive) |  | 80.4 µM (inactive) | > 100 µM (inactive) | > 100 µM (inactive)
6 | O=c1c2cc([N+](=O)[O-])ccc2sc2ccsc12 | > 100 µM (inactive) | > 100 µM (inactive) | > 100 µM (inactive) | > 100 µM (inactive) | > 100 µM (inactive) | > 100 µM (inactive) | > 100 µM (inactive) | > 100 µM (inactive) |  | > 100 µM (inactive) | > 100 µM (inactive) | > 100 µM (inactive) | > 100 µM (inactive) | > 100 µM (inactive) | > 100 µM (inactive) | > 100 µM (inactive) | > 100 µM (inactive) | > 100 µM (inactive) | > 100 µM (inactive)
7 | COc1cc(C2C(Cl)C(=O)N2NC(=O)c2ccc(NC(C)=O)cc2)cc(Br)c1O (stereo not drawn) | > 100 µM (inactive) | > 100 µM (inactive) | > 100 µM (inactive) | > 100 µM (inactive) | > 100 µM (inactive) | > 100 µM (inactive) | > 100 µM (inactive) | > 100 µM (inactive) | > 100 µM (inactive) | > 100 µM (inactive) | > 100 µM (inactive) | > 100 µM (inactive) | > 100 µM (inactive) | > 100 µM (inactive) | > 100 µM (inactive) |  | > 100 µM (inactive) | > 100 µM (inactive) | > 100 µM (inactive)
8 | Cc1cccc(C)c1NC(=O)CCc1nnc(S)[nH]1 | > 100 µM (inactive) |  | > 100 µM (inactive) | > 100 µM (inactive) | > 100 µM (inactive) | > 100 µM (inactive) | > 100 µM (inactive) | > 100 µM (inactive) | > 100 µM (inactive) | > 100 µM (inactive) |  | > 100 µM (inactive) | > 100 µM (inactive) | > 100 µM (inactive) | > 100 µM (inactive) | > 100 µM (inactive) | > 100 µM (inactive) | > 100 µM (inactive) | > 100 µM (inactive)
9 | CCCCCCCCOCC(O)COC(=O)CCCCCCC (stereo not drawn) | > 100 µM (inactive) | 51.3 µM (inactive) | 50.8 µM (inactive) | > 100 µM (inactive) | > 100 µM (inactive) | 30.7 µM (inactive) | > 100 µM (inactive) | 53.6 µM (inactive) | > 100 µM (inactive) | > 100 µM (inactive) | 18.3 µM (inactive) | > 100 µM (inactive) | > 100 µM (inactive) | > 100 µM (inactive) | 95.5 µM (inactive) | 34.4 µM (inactive) | > 100 µM (inactive) |  | > 100 µM (inactive)
10 | CCOC(=O)/C(=C/c1ccco1)P(=O)(OCC)OCC | > 100 µM (inactive) | > 100 µM (inactive) | > 100 µM (inactive) | > 100 µM (inactive) | > 100 µM (inactive) | > 100 µM (inactive) | > 100 µM (inactive) | > 100 µM (inactive) | > 100 µM (inactive) | > 100 µM (inactive) |  | > 100 µM (inactive) | > 100 µM (inactive) | > 100 µM (inactive) | > 100 µM (inactive) | > 100 µM (inactive) | > 100 µM (inactive) | > 100 µM (inactive) | > 100 µM (inactive)
11 | O=C1c2ccccc2C2(O)NC(=S)N(c3ccccc3)C12O (stereo not drawn) | > 100 µM (inactive) | > 100 µM (inactive) | > 100 µM (inactive) | > 100 µM (inactive) | > 100 µM (inactive) | > 100 µM (inactive) | > 100 µM (inactive) | > 100 µM (inactive) | > 100 µM (inactive) | > 100 µM (inactive) | > 100 µM (inactive) | > 100 µM (inactive) | > 100 µM (inactive) | > 100 µM (inactive) | > 100 µM (inactive) | > 100 µM (inactive) |  | > 100 µM (inactive) | 
12 | CC(=O)c1ccc(NC(=O)/C(=N\NC(N)=O)C(C#N)CC(C)(C)C=O)cc1 (stereo not drawn) | > 100 µM (inactive) | > 100 µM (inactive) | > 100 µM (inactive) | > 100 µM (inactive) | > 100 µM (inactive) | > 100 µM (inactive) | > 100 µM (inactive) | > 100 µM (inactive) | > 100 µM (inactive) | > 100 µM (inactive) |  | > 100 µM (inactive) | > 100 µM (inactive) | > 100 µM (inactive) | > 100 µM (inactive) | > 100 µM (inactive) | > 100 µM (inactive) | > 100 µM (inactive) | > 100 µM (inactive)
13 | O=C(Nc1cccc(O)c1)C(=O)C1C(=O)NC(=S)NC1=O | > 100 µM (inactive) | > 100 µM (inactive) | > 100 µM (inactive) | > 100 µM (inactive) | > 100 µM (inactive) | > 100 µM (inactive) |  | > 100 µM (inactive) |  | > 100 µM (inactive) | > 100 µM (inactive) | > 100 µM (inactive) | > 100 µM (inactive) | > 100 µM (inactive) | > 100 µM (inactive) | > 100 µM (inactive) | > 100 µM (inactive) | > 100 µM (inactive) | > 100 µM (inactive)
14 | Cc1ccc(C)c(NC(=O)C(=O)CC(=O)C2CCOC2=O)c1 (stereo not drawn) | > 100 µM (inactive) | > 100 µM (inactive) | > 100 µM (inactive) | 28.5 µM (inactive) | > 100 µM (inactive) |  | > 100 µM (inactive) | > 100 µM (inactive) | > 100 µM (inactive) | > 100 µM (inactive) | > 100 µM (inactive) | > 100 µM (inactive) | > 100 µM (inactive) | > 100 µM (inactive) | > 100 µM (inactive) | > 100 µM (inactive) | > 100 µM (inactive) | > 100 µM (inactive) | > 100 µM (inactive)
15 | O=C(/C=C/c1ccccc1O)/C=C/c1ccccc1O | 1.64 µM (inactive) | 4.43 µM (inactive) | 1.67 µM (inactive) | 1.81 µM (inactive) | 1.83 µM (inactive) |  | 1.35 µM (inactive) | 1.53 µM (inactive) | 1.21 µM (inactive) | 0.332 µM (active) | 0.352 µM (active) | 2.26 µM (inactive) | 0.966 µM (active) | 2.21 µM (inactive) | 0.254 µM (active) | 2.61 µM (inactive) | 1.8 µM (inactive) | 1.55 µM (inactive) | 
16 | CCOC(=O)[N-]c1ccc(S(=O)(=O)[O+](C)CCl)cc1.CCOC(=O)[N-]c1ccc(S(=O)(=O)[O+](C)CCl)cc1.NC(=O)N=O.NC(=O)OCCCl | > 100 µM (inactive) | > 100 µM (inactive) | > 100 µM (inactive) | > 100 µM (inactive) | > 100 µM (inactive) | > 100 µM (inactive) | > 100 µM (inactive) | > 100 µM (inactive) | > 100 µM (inactive) | > 100 µM (inactive) |  | > 100 µM (inactive) | > 100 µM (inactive) | > 100 µM (inactive) | > 100 µM (inactive) |  |  | > 100 µM (inactive) | 
